Measurements taken from publication PMC7658073 (Clinical Pharmacokinetics, 2020).

What was measured:
[1] = target: T1, organic cation transporter 1 (Homo sapiens, UniProt O15245); assay: Substrate properties towards OCT1; type: in vitro ADME
T1 sequence (O15245 1-554): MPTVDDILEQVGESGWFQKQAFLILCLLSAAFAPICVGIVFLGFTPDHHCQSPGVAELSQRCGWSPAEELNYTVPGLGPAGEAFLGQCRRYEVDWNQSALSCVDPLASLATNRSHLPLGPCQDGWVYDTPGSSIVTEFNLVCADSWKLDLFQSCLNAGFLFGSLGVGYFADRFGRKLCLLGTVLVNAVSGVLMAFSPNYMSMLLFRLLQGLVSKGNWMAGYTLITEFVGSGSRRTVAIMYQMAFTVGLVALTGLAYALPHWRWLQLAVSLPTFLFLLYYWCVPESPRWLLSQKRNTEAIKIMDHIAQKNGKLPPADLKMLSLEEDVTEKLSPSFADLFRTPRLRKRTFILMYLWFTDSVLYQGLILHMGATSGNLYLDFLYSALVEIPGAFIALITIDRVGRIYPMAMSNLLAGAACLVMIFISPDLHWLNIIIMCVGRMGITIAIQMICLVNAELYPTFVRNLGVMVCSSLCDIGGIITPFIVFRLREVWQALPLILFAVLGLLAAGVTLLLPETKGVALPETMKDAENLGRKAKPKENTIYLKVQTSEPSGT

UGT2B4 = target: T2, UGT2B4 (Homo sapiens, UniProt P06133); assay: Inhibitory potency towards UGT isoforms: UGT2B4; type: in vitro ADME
T2 sequence (P06133 24-528): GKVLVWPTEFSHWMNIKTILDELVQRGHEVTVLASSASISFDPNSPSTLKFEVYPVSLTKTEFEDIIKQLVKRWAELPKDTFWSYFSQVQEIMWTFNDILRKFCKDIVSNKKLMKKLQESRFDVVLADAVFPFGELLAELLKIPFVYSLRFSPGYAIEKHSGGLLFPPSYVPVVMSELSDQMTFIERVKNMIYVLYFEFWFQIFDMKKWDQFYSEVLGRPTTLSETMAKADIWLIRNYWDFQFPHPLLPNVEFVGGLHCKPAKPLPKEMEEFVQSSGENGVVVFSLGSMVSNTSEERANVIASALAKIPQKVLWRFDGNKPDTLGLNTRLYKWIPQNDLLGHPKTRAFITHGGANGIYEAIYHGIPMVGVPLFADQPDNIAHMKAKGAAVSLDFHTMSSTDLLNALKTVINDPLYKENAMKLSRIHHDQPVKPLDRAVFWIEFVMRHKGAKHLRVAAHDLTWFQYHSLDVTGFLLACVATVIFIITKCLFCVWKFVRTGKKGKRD

OATP1B1 [2] = target: T3, OATP1B1 (Homo sapiens, UniProt Q9Y6L6); assay: Inhibitory potency towards OATP1B1; type: in vitro ADME
T3 sequence (Q9Y6L6 1-691): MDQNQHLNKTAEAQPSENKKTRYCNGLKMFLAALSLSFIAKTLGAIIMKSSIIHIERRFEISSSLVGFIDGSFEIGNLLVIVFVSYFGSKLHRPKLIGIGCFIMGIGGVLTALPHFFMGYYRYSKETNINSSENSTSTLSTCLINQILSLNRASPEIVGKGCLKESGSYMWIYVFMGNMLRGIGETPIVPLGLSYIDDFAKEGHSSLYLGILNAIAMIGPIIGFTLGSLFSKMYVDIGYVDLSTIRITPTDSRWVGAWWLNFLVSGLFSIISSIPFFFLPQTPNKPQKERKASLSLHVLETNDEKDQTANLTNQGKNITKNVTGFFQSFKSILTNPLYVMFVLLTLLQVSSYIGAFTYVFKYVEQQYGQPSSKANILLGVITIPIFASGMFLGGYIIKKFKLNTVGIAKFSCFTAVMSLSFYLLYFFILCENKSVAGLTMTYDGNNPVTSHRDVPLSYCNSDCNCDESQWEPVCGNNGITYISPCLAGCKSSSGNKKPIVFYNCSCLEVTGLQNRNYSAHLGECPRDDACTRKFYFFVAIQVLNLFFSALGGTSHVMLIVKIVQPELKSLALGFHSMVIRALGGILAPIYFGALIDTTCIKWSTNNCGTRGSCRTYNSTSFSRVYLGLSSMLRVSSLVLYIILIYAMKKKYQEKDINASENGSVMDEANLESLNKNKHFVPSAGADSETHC

UGT2B7 = target: T4, UGT2B7 (Homo sapiens, UniProt P16662); assay: Inhibitory potency towards UGT isoforms: UGT2B7; type: in vitro ADME
T4 sequence (P16662 24-529): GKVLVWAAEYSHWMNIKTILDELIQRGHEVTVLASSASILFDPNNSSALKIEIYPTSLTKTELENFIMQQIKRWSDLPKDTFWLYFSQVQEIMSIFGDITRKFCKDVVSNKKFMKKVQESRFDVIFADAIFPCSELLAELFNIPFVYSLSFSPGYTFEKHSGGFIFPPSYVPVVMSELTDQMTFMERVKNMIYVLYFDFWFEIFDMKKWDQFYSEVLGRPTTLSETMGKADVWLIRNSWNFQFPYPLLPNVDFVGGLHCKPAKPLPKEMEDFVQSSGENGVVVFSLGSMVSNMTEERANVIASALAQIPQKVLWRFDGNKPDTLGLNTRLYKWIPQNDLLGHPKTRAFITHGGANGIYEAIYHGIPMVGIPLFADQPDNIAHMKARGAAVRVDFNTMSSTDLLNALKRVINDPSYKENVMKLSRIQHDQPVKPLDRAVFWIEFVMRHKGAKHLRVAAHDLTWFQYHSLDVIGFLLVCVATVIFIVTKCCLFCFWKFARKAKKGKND

OATP1B1 [3] = target: T3, OATP1B1; assay: Substrate properties towards OATP1B1; type: in vitro ADME
[4] = Phase I DDI study with sacubitril/valsartan; type: in vivo, human; details: administered with sacubitril/valsartan
UGT1A1 = target: T5, UGT1A1 (Homo sapiens, UniProt P22309); assay: Inhibitory potency towards UGT isoforms; type: in vitro ADME
T5 sequence (P22309 26-533): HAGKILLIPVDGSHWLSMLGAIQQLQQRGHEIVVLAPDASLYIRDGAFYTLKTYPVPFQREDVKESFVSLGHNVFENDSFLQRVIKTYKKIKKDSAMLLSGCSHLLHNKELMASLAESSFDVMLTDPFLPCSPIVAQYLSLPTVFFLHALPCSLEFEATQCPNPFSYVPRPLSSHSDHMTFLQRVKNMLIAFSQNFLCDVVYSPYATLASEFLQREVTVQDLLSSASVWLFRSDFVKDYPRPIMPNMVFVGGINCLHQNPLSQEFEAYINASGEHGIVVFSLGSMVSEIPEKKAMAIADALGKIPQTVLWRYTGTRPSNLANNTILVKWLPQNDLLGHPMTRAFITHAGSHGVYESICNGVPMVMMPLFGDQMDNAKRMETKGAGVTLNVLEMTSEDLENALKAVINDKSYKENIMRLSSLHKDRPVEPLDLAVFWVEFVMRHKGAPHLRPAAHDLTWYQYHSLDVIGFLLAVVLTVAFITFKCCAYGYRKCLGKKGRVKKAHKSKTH

Compound: COC(=O)Nc1c(N)nc(-c2nn(Cc3ccccc3F)c3ncc(F)cc23)nc1N [Vericiguat]
- Substrate of organic cation transporter 1 [1]: not a substrate
- IC50 (UGT2B4): > 50 µM
- IC50 (OATP1B1 [2]): ~16 µM
- IC50 (UGT2B7): > 50 µM
- Substrate of OATP1B1 (OATP1B1 [3]): not a substrate
- Decrease in AUC0–24 of vericiguat [4]: about 7%
- Decrease in Cmax of vericiguat [4]: ~9%
- IC50 (UGT1A1): > 50 µM
